Experimental data taken from ChEMBL document CHEMBL5380842, “Discovery of a Potent and Selective CCR8 Small Molecular Antagonist IPG7236 for the Treatment of Cancer” (J Med Chem, 2023).
≈ marks a conversion by molar mass, not a printed value.

How the values were obtained:
[1] = Solubility of compound in PBS at pH 7.4 incubated for 2 hrs by LC-MS/MS analysis; format: physicochemical
[2] = Apparent permeability of compound across basal to apical side in human Caco2 cells at 10 uM incubated for 120 mins by LC-MS/MS analysis; details: Caco-2
[3] = Apparent permeability of compound across apical to basal side in human Caco2 cells at 10 uM incubated for 120 mins by LC-MS/MS analysis; details: Caco-2
[4] = molecular target: C-C chemokine receptor type 8 (Homo sapiens, UniProt P51685); test: Antagonist activity against CCR8 (unknown origin) expressed in CHO-K1 cells preincubated for 1 hr followed by CCL1 addition measured after 24 hrs by ONE-Glo assay; format: cell-based
Chain of C-C chemokine receptor type 8 (P51685 whole entry): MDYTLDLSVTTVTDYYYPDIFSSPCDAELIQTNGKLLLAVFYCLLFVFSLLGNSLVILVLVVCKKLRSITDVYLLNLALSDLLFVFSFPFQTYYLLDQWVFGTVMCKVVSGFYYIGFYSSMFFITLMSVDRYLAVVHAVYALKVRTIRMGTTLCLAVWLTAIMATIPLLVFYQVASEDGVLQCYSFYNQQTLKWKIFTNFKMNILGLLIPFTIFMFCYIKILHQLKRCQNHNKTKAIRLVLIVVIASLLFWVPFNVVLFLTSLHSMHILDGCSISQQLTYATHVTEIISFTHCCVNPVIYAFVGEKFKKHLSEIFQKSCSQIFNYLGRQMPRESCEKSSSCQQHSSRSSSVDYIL

[5] = Efflux ratio of apparent permeability across basolateral to apical side over apical to basolateral side in human Caco-2 cells at 10 uM incubated for 120 mins by LC-MS/MS analysis

Compound | solubility at 2 h [1] [µM] | Papp B→A at 2 h, 10 µM [2] [×10⁻⁶ cm/s] | Papp A→B at 2 h, 10 µM [3] [×10⁻⁶ cm/s] | IC50 [4] [nM] | efflux ratio at 2 h, 10 µM [5]
Cc1ccccc1C(=O)Nc1ccc(S(=O)(=O)N[C@H](C)C2CCN(C)CC2)c2ccccc12 | < 3 | 3.4 | 1.3 |  | 
Cc1cc(S(=O)(=O)NCC2CCN(C)CC2)ccc1NC(=O)c1ccccc1C |  |  |  | 251 | 
COCCN1CCC([C@@H](C)NS(=O)(=O)c2ccc(NC(=O)c3ccccc3C)c(C)c2)CC1 |  |  |  | 79 | 
Cc1ccccc1C(=O)Nc1c(C)cc(S(=O)(=O)N[C@H](C)C2CCN(C)CC2)cc1Cl | 247 (≈ 115 µg/mL) | 19.5 | 1.1 |  | 17.7
CCCC(=O)N1CCCC(CNS(=O)(=O)c2ccc(NC(=O)c3ccccc3C)c3ccccc23)C1 (stereo not given) |  |  |  | > 1000 | 
Cc1cc(S(=O)(=O)N[C@H](C)C2CCN(C)CC2)c(F)cc1NC(=O)c1ccccc1C |  | 19.8 | 2.2 | 6 | 9
Cc1cc(S(=O)(=O)N[C@H](C)C2CCN(C)CC2)c(Cl)cc1NC(=O)c1ccccc1C |  | 25.5 | 2 |  | 
CCCN1CCCN(c2cc(NS(=O)(=O)c3ccc(NC(=O)c4ccccc4C)c4ccccc34)ccc2OC)CC1 |  |  |  | > 1000 | 
Cc1cc(S(=O)(=O)N[C@H](C)C2CCN(C)CC2)ccc1NC(=O)C1CCCCCC1 |  | 17.7 | 2 | 28 | 8.9
CCc1cc(S(=O)(=O)N[C@H](C)C2CCN(C)CC2)ccc1NC(=O)c1ccccc1C |  | 25.9 | 1.5 |  | 
Cc1ccccc1C(=O)Nc1ccc(S(=O)(=O)Nc2cccc3c2N(CCN(C)C)C(=O)CO3)c2ccccc12 |  |  |  | > 1000 | 
Cc1ccccc1C(=O)Nc1ccc(S(=O)(=O)NC2CCN(C(=O)N3CCN(C)CC3)CC2)c2ccccc12 |  |  |  | 4 | 
CCCN1CCN(c2ccc(OC)c(NS(=O)(=O)c3ccc(NC(=O)c4ccccc4C)c4ccccc34)c2)CC1 |  |  |  | > 1000 | 
CCCN1CCN(c2ccc(C)c(NS(=O)(=O)c3ccc(NC(=O)c4ccccc4C)c4ccccc34)c2)CC1 |  |  |  | > 1000 | 
Cc1cc(S(=O)(=O)N[C@H](C)C2CCN(C)CC2)ccc1NC(=O)c1ccc(Cl)cc1C |  | 19.4 | 1.1 | 1.7 | 17.6
Cc1ccccc1C(=O)Nc1ccc(S(=O)(=O)N[C@H](C)C2CCN(C)CC2)cc1C#N |  | 2.7 | 0.2 | 33 | 13.5
Cc1cc(S(=O)(=O)N[C@H](C2CC2)C2CCN(C)CC2)ccc1NC(=O)c1ccccc1C |  | 3.6 | 0.3 |  | 
COC(=O)CN1CCC([C@@H](C)NS(=O)(=O)c2ccc(NC(=O)c3ccccc3C)c(C)c2)CC1 |  |  |  | 129 | 
Cc1cc(S(=O)(=O)N[C@H](C)C2CCN(C)CC2)c(C)cc1NC(=O)c1ccccc1C |  | 20.1 | 1 |  | 
Cc1ccccc1C(=O)Nc1ccc(S(=O)(=O)N[C@H](C)C23CCN(CC2)CC3)c2ccccc12 |  |  |  | 303 | 
Cc1ccccc1C(=O)Nc1ccc(S(=O)(=O)N[C@H](C)C2CCN(C)CC2)cc1Cl | 233 (≈ 105 µg/mL) | 25.9 | 0.7 |  | 
Cc1cc(S(=O)(=O)N[C@H](C)C2CCN(C)CC2)ccc1NC(=O)c1cc(Cl)ccc1C |  | 31.4 | 1.6 | 1.7 | 19.6
CCCN1CCC([C@@H](C)NS(=O)(=O)c2ccc(NC(=O)c3ccccc3C)c(C)c2)CC1 |  | 30.4 | 2.2 |  | 
CCCN1CCN(c2cccc(NS(=O)(=O)c3ccc(NC(=O)c4ccccc4C)c4ccccc34)c2C)CC1 |  |  |  | > 1000 | 
Cc1ccccc1C(=O)Nc1ccc(S(=O)(=O)NC(C)C2CCCCN2)c2ccccc12 (stereo not given) |  |  |  | > 1000 | 
Cc1cc(S(=O)(=O)N[C@H](C)C2CCN(C)CC2)ccc1NC(=O)c1ccsc1C |  | 25.9 | 1.5 |  | 
CCCC(=O)N1CCCC(C(=O)NS(=O)(=O)c2ccc(NC(=O)c3ccccc3C)c3ccccc23)C1 (stereo not given) |  |  |  | > 1000 | 
